The test system of the assay is L1210 leukemia ip in BDF1 mice, survival T/C. The assay is described as follows: NCI In Vivo Anticancer Drug Screen. Data for tumor model L1210 Leukemia (intraperitoneal) in B6D2F1 (BDF1) mice. The note with it: endpoint: mean survival time, higher = longer survival. The method, boiled down: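 Each compound was tested against a transplantable tumor grown in mice. The endpoint was survival, with treated animals benchmarked against vehicle controls as a simple ratio.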

Where [1] appears, read: dose: 100.0 mg/kg/injection, schedule: Q01DX001 (ip), vehicle: carboxymethylcellulose (CMC).
[2] abbreviates: dose: 200.0 mg/kg/injection, schedule: Q01DX001 (ip), vehicle: carboxymethylcellulose (CMC).
[3] abbreviates: dose: 400.0 mg/kg/injection, schedule: Q01DX001 (ip), vehicle: carboxymethylcellulose (CMC).
The mark [4] stands for this setting: dose: 50.0 mg/kg/injection, schedule: Q01DX009 (ip), vehicle: Klucel (hydroxypropylcellulose) (HPC).
[5] abbreviates: dose: 100.0 mg/kg/injection, schedule: Q01DX009 (ip), vehicle: Klucel (hydroxypropylcellulose) (HPC).
The mark [6] stands for this setting: dose: 200.0 mg/kg/injection, schedule: Q01DX009 (ip), vehicle: Klucel (hydroxypropylcellulose) (HPC).
Where [7] appears, read: dose: 400.0 mg/kg/injection, schedule: Q01DX009 (ip), vehicle: Klucel (hydroxypropylcellulose) (HPC).
The mark [8] stands for this setting: dose: 100.0 mg/kg/injection, schedule: Q04DX002 (ip), vehicle: saline with Tween-80.
Where [9] appears, read: dose: 200.0 mg/kg/injection, schedule: Q04DX002 (ip), vehicle: saline with Tween-80.
Setting [10] is: dose: 400.0 mg/kg/injection, schedule: Q04DX002 (ip), vehicle: saline with Tween-80.
The mark [11] stands for this setting: dose: 100.0 mg/kg/injection, schedule: Q01DX009 (ip), vehicle: saline with Tween-80.
Where [12] appears, read: dose: 100.0 mg/kg/injection, schedule: Q04DX003 (ip), vehicle: saline with Tween-80.
Where [13] appears, read: dose: 200.0 mg/kg/injection, schedule: Q01DX009 (ip), vehicle: saline with Tween-80.
[14] abbreviates: dose: 200.0 mg/kg/injection, schedule: Q04DX003 (ip), vehicle: saline with Tween-80.
The mark [15] stands for this setting: dose: 400.0 mg/kg/injection, schedule: Q01DX009 (ip), vehicle: saline with Tween-80.
The mark [16] stands for this setting: dose: 400.0 mg/kg/injection, schedule: Q04DX003 (ip), vehicle: saline with Tween-80.
[17] abbreviates: dose: 100.0 mg/kg/injection, schedule: Q04DX003 (ip), vehicle: Klucel (hydroxypropylcellulose) (HPC).
Where [18] appears, read: dose: 200.0 mg/kg/injection, schedule: Q04DX003 (ip), vehicle: Klucel (hydroxypropylcellulose) (HPC).
Where [19] appears, read: dose: 400.0 mg/kg/injection, schedule: Q04DX003 (ip), vehicle: Klucel (hydroxypropylcellulose) (HPC).
Setting [20] is: dose: 100.0 mg/kg/injection, schedule: Q01DX001 (ip), vehicle: saline.
Where [21] appears, read: dose: 200.0 mg/kg/injection, schedule: Q01DX001 (ip), vehicle: saline.
Setting [22] is: dose: 400.0 mg/kg/injection, schedule: Q01DX001 (ip), vehicle: saline.
Where [23] appears, read: dose: 100.0 mg/kg/injection, schedule: Q01DX009 (ip), vehicle: saline.
[24] abbreviates: dose: 50.0 mg/kg/injection, schedule: Q01DX001 (ip), vehicle: carboxymethylcellulose (CMC).
The mark [25] stands for this setting: dose: 100.0 mg/kg/injection, schedule: Q04DX003 (ip), vehicle: saline.
[26] abbreviates: dose: 200.0 mg/kg/injection, schedule: Q01DX009 (ip), vehicle: saline.
Where [27] appears, read: dose: 200.0 mg/kg/injection, schedule: Q04DX003 (ip), vehicle: saline.
[28] abbreviates: dose: 400.0 mg/kg/injection, schedule: Q01DX009 (ip), vehicle: saline.
Where [29] appears, read: dose: 400.0 mg/kg/injection, schedule: Q04DX003 (ip), vehicle: saline.

The structures appear in SMILES notation. “And” between values parts separate entries of the source, which are not always exact repeats. Equal values may be shown once. Inconclusive results and toxic doses are left out.

As to `O=C(Nc1cccc(O)c1)Nc1cccc(C(F)(F)F)c1`, the T/C was 92 % of control and 101 % of control under setting [1]; 94 % of control and 96 % of control (dose: 100.0 mg/kg/injection, schedule: Q01DX009 (ip), vehicle: carboxymethylcellulose (CMC)); 92 % of control and 93 % of control (dose: 100.0 mg/kg/injection, schedule: Q04DX002 (ip), vehicle: carboxymethylcellulose (CMC)); 95 % of control and 100 % of control (dose: 100.0 mg/kg/injection, schedule: Q04DX003 (ip), vehicle: carboxymethylcellulose (CMC)); 96 % of control and 87 % of control under setting [2]; 94 % of control and 100 % of control (dose: 200.0 mg/kg/injection, schedule: Q01DX009 (ip), vehicle: carboxymethylcellulose (CMC)). Further, the T/C was 92 % of control and 86 % of control (dose: 200.0 mg/kg/injection, schedule: Q04DX002 (ip), vehicle: carboxymethylcellulose (CMC)); 92 % of control and 91 % of control (dose: 200.0 mg/kg/injection, schedule: Q04DX003 (ip), vehicle: carboxymethylcellulose (CMC)); 92 % of control and 93 % of control under setting [3]; 100 % of control and 91 % of control (dose: 400.0 mg/kg/injection, schedule: Q01DX009 (ip), vehicle: carboxymethylcellulose (CMC)); 95 % of control and 100 % of control (dose: 400.0 mg/kg/injection, schedule: Q04DX002 (ip), vehicle: carboxymethylcellulose (CMC)); 87 % of control and 91 % of control (dose: 400.0 mg/kg/injection, schedule: Q04DX003 (ip), vehicle: carboxymethylcellulose (CMC)).
For the molecule `COc1ccccc1OCC(O)COC(N)=O` (stereo not given), the T/C runs as follows: (dose: 25.0 mg/kg/injection, schedule: Q01DX009 (ip), vehicle: Klucel (hydroxypropylcellulose) (HPC)) 100 % of control; under setting [4], 103 % of control; under setting [5], 106 % of control; under setting [6], 103 % of control; under setting [7], 106 % of control.
As for `CN(Cc1cnc2nc(N)nc(N)c2n1)c1ccc(C(=O)NC(CCC(=O)O)C(=O)O)cc1I` (stereo not given), the T/C was 176 % of control (dose: 2.5 mg/kg/injection, schedule: Q01DX009 (ip), vehicle: sodium bicarbonate); 175 % of control (dose: 5.0 mg/kg/injection, schedule: Q01DX009 (ip), vehicle: sodium bicarbonate); 104 % of control (dose: 10.0 mg/kg/injection, schedule: Q01DX009 (ip), vehicle: sodium bicarbonate).
`CCOC(=O)C(C(=O)OCC)C(=O)c1cccc2c1ccc1ccccc12`: the T/C runs as follows: under setting [8], 95 % of control; under setting [9], 107 % of control; under setting [10], 100 % of control.
On to `CCSC(=O)N1c2ccc(OC)cc2C=CC1C#N` (stereo not given), for which the T/C runs as follows: under setting [11], 119 % of control; under setting [12], 101 % of control; under setting [13], 124 % of control; under setting [14], 97 % of control; under setting [15], 119 % of control; under setting [16], 111 % of control.
On to `C=CCSCC(=O)c1ccccc1`, for which the T/C is 90 % of control under setting [4]; 94 % of control under setting [5]; 101 % of control under setting [17]; 90 % of control under setting [6]; 97 % of control under setting [18]; 100 % of control under setting [19].
In the case of `O=[N+]([O-])c1ccc(Cl)cc1/C=N/N1CCN(/N=C/c2cc(Cl)ccc2[N+](=O)[O-])CC1`, the T/C is 93 % of control under setting [20], 93 % of control under setting [21] and 93 % of control under setting [22].
For `CP1(=O)CC2OC23CCCCC31` (stereo not given), the T/C runs as follows: (dose: 12.5 mg/kg/injection, schedule: Q01DX009 (ip), vehicle: saline) 98 % of control; (dose: 25.0 mg/kg/injection, schedule: Q01DX009 (ip), vehicle: saline) 98 % of control; (dose: 50.0 mg/kg/injection, schedule: Q01DX009 (ip), vehicle: saline) 102 % of control; (dose: 100.0 mg/kg/injection, schedule: Q01DX009 (ip), vehicle: other) 109 % of control; under setting [23], 89 % of control; (dose: 200.0 mg/kg/injection, schedule: Q01DX009 (ip), vehicle: other) 114 % of control.
In the case of `O=c1[nH]cnc2c1nnn2C1OC(CO)C(O)C1O` (stereo not given), the T/C (dose: 90.0 mg/kg/injection, schedule: Q01DX009 (ip), vehicle: saline) was 155 % of control and 160 % of control; the T/C (dose: 135.0 mg/kg/injection, schedule: Q01DX009 (ip), vehicle: saline) was 163 % of control.
`O=C(O)/C=C/C(=O)c1ccccc1`: the T/C under setting [24] is 109 % of control.
With `N#CCCOCC(OCCC#N)C(COCCC#N)OCCC#N` (stereo not given), the T/C was 95 % of control under setting [24], 97 % of control under setting [1], 97 % of control under setting [2] and 92 % of control under setting [3].
For `NC(=O)NC1CCCC1`, the T/C was 93 % of control under setting [12], 89 % of control under setting [14] and 93 % of control under setting [16].
Turning to `COC(=O)C1OC1c1cc(Cl)cc(Cl)c1OC` (stereo not given), the T/C was 100 % of control under setting [20], 106 % of control under setting [21] and 101 % of control under setting [22].
For `O=C1NCCN1`, the T/C was 101 % of control under setting [23]; 103 % of control (dose: 100.0 mg/kg/injection, schedule: Q04DX002 (ip), vehicle: saline); 104 % of control under setting [25]; 106 % of control under setting [26]; 107 % of control (dose: 200.0 mg/kg/injection, schedule: Q04DX002 (ip), vehicle: saline); 101 % of control under setting [27]. The T/C was 106 % of control under setting [28]; 107 % of control (dose: 400.0 mg/kg/injection, schedule: Q04DX002 (ip), vehicle: saline); 95 % of control under setting [29].
As for `Cc1cc(C)c2c(SC(C)C)nc(N)nc2n1`, the T/C reads like this: (dose: 100.0 mg/kg/injection, schedule: Q01DX Z (ip), vehicle: methylcellulose (MC)) 95 % of control; (dose: 200.0 mg/kg/injection, schedule: Q01DX Z (ip), vehicle: methylcellulose (MC)) 97 % of control.
For the molecule `Cc1c(Cl)cccc1NC(=O)N1CCCC(C)C1` (stereo not given), the T/C was 94 % of control and 90 % of control under setting [11]; 96 % of control and 89 % of control under setting [8]; 96 % of control under setting [12]; 90 % of control under setting [13]; 86 % of control and 89 % of control under setting [9]; 102 % of control under setting [14]. Further, the T/C is, setting by setting: under setting [15], 93 % of control and 95 % of control; under setting [10], 93 % of control and 89 % of control; under setting [16], 97 % of control.
As for `O=C(O)c1ccc(C(=O)c2ccccc2C(=O)O)cc1`, the T/C is, setting by setting: under setting [23], 105 % of control; under setting [25], 102 % of control; under setting [26], 106 % of control; under setting [27], 112 % of control; under setting [28], 105 % of control; under setting [29], 101 % of control.
With `c1ccc(CC2(Cc3ccccc3)N=C(c3ccccc3)C(c3ccccc3)=N2)cc1`, the T/C is 103 % of control under setting [5]; 102 % of control under setting [17]; 97 % of control under setting [6]; 103 % of control under setting [18]; 98 % of control under setting [7]; 97 % of control under setting [19].
With `COc1c(NC(=O)c2ccc(C(=O)Nc3cccc([N+](=O)[O-])c3OC)cc2)cccc1[N+](=O)[O-]`, the T/C under setting [5] was 97 % of control, the T/C under setting [6] was 100 % of control and the T/C under setting [7] was 97 % of control.
Take `CCC(C)C(C#N)(CCN(CC=C(C)C)CC=C(C)C)c1cccc2ccccc12` (stereo not given): the T/C is 96 % of control under setting [17], 110 % of control under setting [18] and 93 % of control under setting [19].

For the origin of these results see PubChem BioAssay AID248 (DTP/NCI, 2004).
